The NIST ThermoML archive (doi:10.1021/acs.jced.8b00008)

Test: xn = mol fraction of the nth substance listed
Details: for surface tension liquid-gas: 293 K, Pendant drop shape; for viscosity / speed of sound / mass density: 102 kPa, Liquid; for viscosity: Concentric cylinders viscometry; for speed of sound: Single path-length method; for mass density: Vibrating tube method

CCCCCCCCCCCCCCCC [hexadecane] + CC1CCCCC1
Details | surface tension liquid-gas [mN/m]
x2 = 0.1018 | 26.8
x2 = 0.2 | 26.7
x2 = 0.3 | 26.4
x2 = 0.4004 | 26.2
x2 = 0.4999 | 26
x2 = 0.6 | 25.5
x2 = 0.7 | 25.2
x2 = 0.8 | 24.7
x2 = 0.9 | 24.3

Details | mass density [kg/m3] | speed of sound [m/s] | viscosity [mPa·s]
293.15 K, x2 = 0.1018 | 773 | 1350.5 | 3.14
293.15 K, x2 = 0.2 | 772.68 | 1343.5 | 2.83
293.15 K, x2 = 0.3 | 772.21 | 1334.5 | 2.54
293.15 K, x2 = 0.4004 | 771.85 | 1325.6 | 2.24
293.15 K, x2 = 0.4999 | 771.43 | 1316.2 | 1.96
293.15 K, x2 = 0.6 | 770.99 | 1303.5 | 1.68
293.15 K, x2 = 0.7 | 770.52 | 1289.9 | 1.42
293.15 K, x2 = 0.8 | 770.06 | 1274.4 | 1.174
293.15 K, x2 = 0.9 | 769.64 | 1256.8 | 0.943
298.15 K, x2 = 0.1018 | 769.51 | 1331.5 | 2.81
298.15 K, x2 = 0.2 | 769.17 | 1324.6 | 2.54
298.15 K, x2 = 0.3 | 768.68 | 1315.4 | 2.29
298.15 K, x2 = 0.4004 | 768.28 | 1306.5 | 2.03
298.15 K, x2 = 0.4999 | 767.82 | 1297.4 | 1.79
298.15 K, x2 = 0.6 | 767.29 | 1284.3 | 1.54
298.15 K, x2 = 0.7 | 766.75 | 1270.5 | 1.31
298.15 K, x2 = 0.8 | 766.16 | 1254.1 | 1.084
298.15 K, x2 = 0.9 | 765.56 | 1236 | 0.892
303.15 K, x2 = 0.1018 | 766.03 | 1312.7 | 2.52
303.15 K, x2 = 0.2 | 765.67 | 1306 | 2.29
303.15 K, x2 = 0.3 | 765.15 | 1296.5 | 2.08
303.15 K, x2 = 0.4004 | 764.7 | 1287.5 | 1.85
303.15 K, x2 = 0.4999 | 764.21 | 1278.4 | 1.65
303.15 K, x2 = 0.6 | 763.6 | 1265 | 1.43
303.15 K, x2 = 0.7 | 762.96 | 1250.9 | 1.22
303.15 K, x2 = 0.8 | 762.24 | 1233.9 | 1.012
303.15 K, x2 = 0.9 | 761.47 | 1215.2 | 0.82
313.15 K, x2 = 0.1018 | 759.08 | 1275.9 | 2.06
313.15 K, x2 = 0.2 | 758.66 | 1269.1 | 1.89
313.15 K, x2 = 0.3 | 758.08 | 1259.4 | 1.72
313.15 K, x2 = 0.4004 | 757.54 | 1250.2 | 1.55
313.15 K, x2 = 0.4999 | 756.95 | 1240.7 | 1.38
313.15 K, x2 = 0.6 | 756.18 | 1226.9 | 1.2
313.15 K, x2 = 0.7 | 755.37 | 1212.1 | 1.03
313.15 K, x2 = 0.8 | 754.38 | 1194.1 | 0.906
313.15 K, x2 = 0.9 | 753.24 | 1174.1 | 0.739
323.15 K, x2 = 0.1018 | 752.12 | 1239.9 | 1.72
323.15 K, x2 = 0.2 | 751.64 | 1233 | 1.58
323.15 K, x2 = 0.3 | 751 | 1223 | 1.45
323.15 K, x2 = 0.4004 | 750.36 | 1213.5 | 1.31
323.15 K, x2 = 0.4999 | 749.66 | 1203.7 | 1.2
323.15 K, x2 = 0.6 | 748.73 | 1189.3 | 1.05
323.15 K, x2 = 0.7 | 747.73 | 1173.8 | 0.91
323.15 K, x2 = 0.8 | 746.47 | 1154.9 | 0.768
323.15 K, x2 = 0.9 | 744.96 | 1133.7 | 0.629
333.15 K, x2 = 0.1018 | 745.15 | 1204.9 | 1.46
333.15 K, x2 = 0.2 | 744.61 | 1197.7 | 1.35
333.15 K, x2 = 0.3 | 743.89 | 1187.7 | 1.24
333.15 K, x2 = 0.4004 | 743.16 | 1177.8 | 1.16
333.15 K, x2 = 0.4999 | 742.34 | 1167.2 | 1.04
333.15 K, x2 = 0.6 | 741.25 | 1152.3 | 0.924
333.15 K, x2 = 0.7 | 740.03 | 1136 | 0.801
333.15 K, x2 = 0.8 | 738.5 | 1116.2 | 0.68
333.15 K, x2 = 0.9 | 736.61 | 1094.2 | 0.558
